Data from PMC7266110 (Drug Design, Development and Therapy, 2020).
pIC50: −log10 of the molar value.

Molecular target: T1, PPARγ (Homo sapiens, UniProt P37231)
T1 sequence (P37231 1-505): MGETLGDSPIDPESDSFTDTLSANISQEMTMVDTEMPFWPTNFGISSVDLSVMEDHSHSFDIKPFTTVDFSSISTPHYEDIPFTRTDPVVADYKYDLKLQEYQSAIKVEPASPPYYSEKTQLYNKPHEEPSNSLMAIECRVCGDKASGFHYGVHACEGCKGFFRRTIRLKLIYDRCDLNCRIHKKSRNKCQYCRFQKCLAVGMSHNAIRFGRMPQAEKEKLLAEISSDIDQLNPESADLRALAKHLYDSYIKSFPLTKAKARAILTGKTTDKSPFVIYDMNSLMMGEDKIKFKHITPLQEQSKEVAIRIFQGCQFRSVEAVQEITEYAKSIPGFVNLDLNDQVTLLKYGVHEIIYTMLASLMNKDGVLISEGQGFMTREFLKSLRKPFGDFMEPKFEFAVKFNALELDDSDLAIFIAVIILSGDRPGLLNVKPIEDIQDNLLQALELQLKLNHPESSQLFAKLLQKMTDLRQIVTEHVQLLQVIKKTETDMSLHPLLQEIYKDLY
Experiment: FP-based PPARγ ligand screening assay
Format: binding

pIC50: 4.74
Structure (SMILES): O=C(/C=C/C=C/c1ccc2c(c1)OCO2)N1CCCCC1 [Piperine]
